Measured values: ChEMBL document CHEMBL1201862, “PubChem BioAssay data set” (2004)
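Protocol summary: plate cells (96-well), add compound at 5 concentrations, incubate 48 h, interpolate endpoints linearly. At the GI50, growth is halved.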 The source made the active and inactive calls. Cut-off read from the data, not from the text of the source: active = GI50 up to about 1.1 µM and inactive = higher. *1 amine or outer side, *2 acyl side, *3 side chain or, on linkers, in order; H or OH if unused. Where a SMILES comes first, the peptide text is derived from it. Bridges are numbered along the chain shown (N, C = ends). Roman numbers before positions name the chains, in order. [ ]: non-standard residue; d: D form. Actinocin(1to9) = Cc1c2oc3c(C)ccc(C(=O)[*:2])c3nc-2c(C(=O)[*:1])c(N)c1=O; NMeV = CN[CH](C(=O)O)C(C)C; Sar = CNCC(=O)O

Tests used:
Test in all cases: inhibition of tumour cell growth, NCI panel, 48 h
NCI-H23 = tested on: NCI-H23
OVCAR-8 = tested on: OVCAR-8
HOP-62 = tested on: HOP-62
U-251 = tested on: U-251
SN12C = tested on: SN12C
SNB-75 = tested on: SNB-75
MDA-MB-231 = tested on: MDA-MB-231
MOLT-4 = tested on: MOLT-4
OVCAR-5 = tested on: OVCAR-5
OVCAR-3 = tested on: OVCAR-3
NCI-H460 = tested on: NCI-H460
UACC-62 = tested on: UACC-62
SK-OV-3 = tested on: SK-OV-3
SF-295 = tested on: SF-295
BT-549 = tested on: BT-549
HOP-92 = tested on: HOP-92
SK-MEL-5 = tested on: SK-MEL-5
HCT-116 = tested on: HCT-116
MDA-N = tested on: MDA-N
SK-MEL-28 = tested on: SK-MEL-28

SMILES | GI50 (NCI-H23) | GI50 (OVCAR-8) | GI50 (HOP-62) | GI50 (U-251) | GI50 (SN12C) | GI50 (SNB-75) | GI50 (MDA-MB-231) | GI50 (MOLT-4) | GI50 (OVCAR-5) | GI50 (OVCAR-3) | GI50 (NCI-H460) | GI50 (UACC-62) | GI50 (SK-OV-3) | GI50 (SF-295) | GI50 (BT-549) | GI50 (HOP-92) | GI50 (SK-MEL-5) | GI50 (HCT-116) | GI50 (MDA-N) | GI50 (SK-MEL-28)
O=c1c2c(nc3[nH]ccn13)CCC2 | > 10 µM (inactive) | > 10 µM (inactive) | > 10 µM (inactive) | > 10 µM (inactive) | > 10 µM (inactive) | > 10 µM (inactive) | > 10 µM (inactive) | > 10 µM (inactive) | > 10 µM (inactive) | > 10 µM (inactive) | > 10 µM (inactive) | > 10 µM (inactive) | > 10 µM (inactive) | > 10 µM (inactive) | > 10 µM (inactive) | > 10 µM (inactive) | > 10 µM (inactive) | > 10 µM (inactive) | > 10 µM (inactive) | > 10 µM (inactive)
CCC(C)C1NC(=O)C(NC(=O)c2c3nc4c(C(=O)NC5C(=O)NC(C(C)C)C(=O)N6CCCC6C(=O)N(C)CC(=O)N(C)C(C(C)C)C(=O)OC5C)ccc(C)c4oc-3c(C)c(=O)c2N)C(C)OC(=O)C(C(C)C)N(C)C(=O)CN(C)C(=O)C2CCCN2C1=O (stereo not given) (I: TIP[Sar][NMeV] / II: TVP[Sar][NMeV]; ester I:1-I:C, II:1-II:C; linker I:N-II:N via Actinocin(1to9); configuration not given here) | 0.000697 µM (active) | 0.000443 µM (active) | 0.000594 µM (active) | < 0.0001 µM (active) | 0.000388 µM (active) | 0.00762 µM (active) | 0.000173 µM (active) | < 0.0001 µM (active) | 0.000586 µM (active) | 0.0185 µM (active) | < 0.0001 µM (active) | 0.00589 µM (active) | 0.0152 µM (active) | 0.000353 µM (active) | 0.00247 µM (active) | 0.00161 µM (active) | < 0.0001 µM (active) | < 0.0001 µM (active) | 0.000135 µM (active) | 0.000733 µM (active)
O=[N+]([O-])c1nccn1CC(O)CN1CCCCC1 (stereo not given) [PIMONIDAZOLE] | > 100 µM (inactive) | > 100 µM (inactive) | > 100 µM (inactive) | > 100 µM (inactive) | > 100 µM (inactive) | > 100 µM (inactive) | > 100 µM (inactive) | > 100 µM (inactive) | > 100 µM (inactive) | > 100 µM (inactive) | > 100 µM (inactive) | > 100 µM (inactive) | > 100 µM (inactive) | > 100 µM (inactive) | > 100 µM (inactive) | > 100 µM (inactive) | > 100 µM (inactive) | > 100 µM (inactive) | > 100 µM (inactive) | > 100 µM (inactive)
O=C(O)[C@@H]1CCCN1 [PROLINE] | > 100 µM (inactive) | > 100 µM (inactive) | > 100 µM (inactive) | > 100 µM (inactive) | > 100 µM (inactive) | 57.4 µM (inactive) | > 100 µM (inactive) | > 100 µM (inactive) | > 100 µM (inactive) | > 100 µM (inactive) | > 100 µM (inactive) | > 100 µM (inactive) | > 100 µM (inactive) | > 100 µM (inactive) | > 100 µM (inactive) | > 100 µM (inactive) | > 100 µM (inactive) | > 100 µM (inactive) | > 100 µM (inactive) | > 100 µM (inactive)
